Literature values in patent US20070281910A1, “Salicyl alcohol creatine phosphate prodrugs, compositions and uses thereof” (XenoPort, Inc., priority 2006, published 2007).
Read-outs that look alike come from different tables or passages of the source.

How the values were obtained:
[1] = not given; remark: listed apart in the source
[2] = animals fed a diet containing up to 1%

Structure (SMILES): CN(CC(=O)O)C(=N)NP(=O)(O)O [Creatine phosphate, creatine phosphate]
- adverse side effects (patients with cardiac diseases, intravenous injection up to 8 gm/day): without adverse side effects

Structure (SMILES): CN(CC(=O)O)C(=N)N.O [creatine monohydrate]
- adverse side effects (athletes and body builders, 2-3 gm/day): without adverse side effects

Structure (SMILES): CN(CC(=O)O)C(=N)N [creatine]
- overall increase of creatine phosphate levels ([1]; creatine supplementation over weeks): < 50%
- duration of increase in tissue creatine phosphate levels ([1]; following oral creatine supplementation): > 14 days
- increase of cerebral creatine phosphate ([1]; healthy volunteers, oral creatine administration): about 10%

Structure (SMILES): NC1=NCCN1CC(=O)O [cyclocreatine]
- adverse effects [2]: do not exhibit adverse effects
